Results on 3 molecules are retold here after patent publication US20250235508A1, “MODIFIED THERAPEUTIC AGENTS AND COMPOSITIONS THEREOF” (THE SCRIPPS RESEARCH INSTITUTE, priority 2015, published 2025).

Structures are written as SMILES. pEC50: −log10 of the molar value. Starred links: 1 amine or outer side, 2 acyl side, 3 side chain; linkers in the order of their positions; H or OH if unused. Positions of bridges follow the written chain, without caps; N, C: chain ends. Non-standard residues stand in square brackets, D forms with d. Residues, ends and D or L forms follow the SMILES beside them. Glutaryl = O=C(CCCC(=O)[*:2])[*:1]

Data set [1] in a line: in vivo. The following applies: female, CD-1, mouse, 0.3 mg/kg.
Description: (§2) Female CD-1 mice obtained from Charles River Limited were used after overnight food deprivation for in vivo PK study. Peptides were dissolved in pH adjusted Phosphate buffered saline (PBS). 100 μL of each peptide (0.3 mg/kg) was administrated into each mouse through either i.v. or s.c route. Food was provided to mice immediately after bleeding at 30 minute. Blood were extracted into heparinized tubes and centrifuged at 3,000×g for 15 min. The resulting supernatant plasma were then stored at −80° C. for activity assays. The concentrations of peptides in plasma at each time point were determined by activity assay described above and in vivo half-life of each peptide was calculated by using Winnonlin Phoenix software (Pharsight Corp, St. Louis, MO).
Data set [2] concerns the target T1, human glucagon-like peptide 1 receptor (GLP-1R) (Homo sapiens, UniProt P43220).
T1 construct: expressed in transfected cells; host or cells: HEK293 (CRE-HEK293)
Description: GLP-1R receptor-mediated CRE Luc reporter assay (receptor-mediated cAMP synthesis). The following applies: HEK293-GLP-1R-CRE cells, luciferase reporter. In kind it is cell-based. Here is the method: HEK293 cells were infected with lent virus encoding firefly luciferase gene under the control of CRE promoter, as described in the manual (Qiagen, Netherlands) and then were selected using 1 μg/mL puromycin (Life technologies, Carlsbad) for 1 week. The survived cells were named as CRE-HEK293, expanded and then transfected with a G418 selective mammalian expression plasmid encoding human GCGR, GLP-1R, GIPR or GLP-2R. […] Single colony stable cell lines overexpressing both CRE-luciferase and GCGR, GLP-1R, GIPR, or GLP-2R were then established for in vitro activity assays. These four stable cell lines were named as HEK293-GCGR-CRE, HEK293-GLP-1R-CRE, HEK293-GIPR-CRE, and HEK293-GLP-2R-CRE. […] Cells were treated with different peptides in a dose dependent manner.
In general terms: In a reporter assay the amount or activity of a reporter protein is the signal.

Data set [3] addresses T2, human glucagon receptor (GCGR) (Homo sapiens, UniProt P47871).
T2 construct: expressed in transfected cells; host or cells: HEK293 (CRE-HEK293)
Description: GCGR receptor-mediated CRE Luc reporter assay (receptor-mediated cAMP synthesis). The following applies: HEK293-GCGR-CRE cells, luciferase reporter. It counts as cell-based. On the procedure:
(§1) CREB responsive luciferase stable HEK 293 cell line overexpressing human glucagon receptor (GCGR), glucagon-like peptide 1 receptor (GLP-1R), glucose-dependent insulinotropic polypeptide receptor (GIPR), glucagon-like peptide 2 receptor (GLP-2R) was generated as follows. HEK293 cells were infected with lent virus encoding firefly luciferase gene under the control of CRE promoter, as described in the manual (Qiagen, Netherlands) and then were selected using 1 μg/mL puromycin (Life technologies, Carlsbad) for 1 week. The survived cells were named as CRE-HEK293, expanded and then transfected with a G418 selective mammalian expression plasmid encoding human GCGR, GLP-1R, GIPR or GLP-2R. In brief, GCGR, GLP-1R, GIPR, or GLP-2R plasmid was transfected into CRE-HEK293 cells using Lipofectamine 2000 and selected with 400 μg/mL geneticin (Life technologies, Carlsbad, CA). Single colony stable cell lines overexpressing both CRE-luciferase and GCGR, GLP-1R, GIPR, or GLP-2R were then established for in vitro activity assays. […] On the next day, 10 μl of Bright-Glo reagent (Promega, Madison, WI) were added into each well and firefly luminescence was determined using an Envision multilabel plate reader (PerkinElmer, Waltham, MA). EC50 of each peptide was calculated using GraphPad Prism 6 software (GraphPad, San Diego, CA). […]

The nature of data set [4]: In vivo pharmacokinetic (PK) study in CD-1 mice. The following applies: female, CD-1, mouse, plasma, 0.3 mg/kg.
Description: as §2
In data set [5] the target is T3, human glucagon-like peptide 2 receptor (GLP-2R) (Homo sapiens, UniProt O95838).
T3 construct: expressed in transfected cells; host or cells: HEK293 (CRE-HEK293)
T3 sequence (O95838 1-553): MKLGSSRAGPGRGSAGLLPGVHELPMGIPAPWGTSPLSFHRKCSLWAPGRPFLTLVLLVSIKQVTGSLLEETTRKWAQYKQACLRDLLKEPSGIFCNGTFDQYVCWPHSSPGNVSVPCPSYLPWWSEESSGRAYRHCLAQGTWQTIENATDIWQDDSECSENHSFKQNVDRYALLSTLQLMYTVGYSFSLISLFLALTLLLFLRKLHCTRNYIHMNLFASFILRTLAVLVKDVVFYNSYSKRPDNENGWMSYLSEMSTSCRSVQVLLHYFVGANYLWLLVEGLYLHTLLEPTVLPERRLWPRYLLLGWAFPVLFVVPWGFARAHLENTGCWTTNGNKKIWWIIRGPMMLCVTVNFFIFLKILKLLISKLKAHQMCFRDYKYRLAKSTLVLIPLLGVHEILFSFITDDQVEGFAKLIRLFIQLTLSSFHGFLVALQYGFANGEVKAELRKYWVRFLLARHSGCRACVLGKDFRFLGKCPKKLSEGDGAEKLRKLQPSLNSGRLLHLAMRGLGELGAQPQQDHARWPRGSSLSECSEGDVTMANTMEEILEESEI
Description: GLP-2R receptor-mediated CRE Luc reporter assay (receptor-mediated cAMP synthesis). The following applies: HEK293-GLP-2R-CRE cells, luciferase reporter. In kind it is cell-based. On the procedure:
as §1

T1 sequence (P43220 24-463): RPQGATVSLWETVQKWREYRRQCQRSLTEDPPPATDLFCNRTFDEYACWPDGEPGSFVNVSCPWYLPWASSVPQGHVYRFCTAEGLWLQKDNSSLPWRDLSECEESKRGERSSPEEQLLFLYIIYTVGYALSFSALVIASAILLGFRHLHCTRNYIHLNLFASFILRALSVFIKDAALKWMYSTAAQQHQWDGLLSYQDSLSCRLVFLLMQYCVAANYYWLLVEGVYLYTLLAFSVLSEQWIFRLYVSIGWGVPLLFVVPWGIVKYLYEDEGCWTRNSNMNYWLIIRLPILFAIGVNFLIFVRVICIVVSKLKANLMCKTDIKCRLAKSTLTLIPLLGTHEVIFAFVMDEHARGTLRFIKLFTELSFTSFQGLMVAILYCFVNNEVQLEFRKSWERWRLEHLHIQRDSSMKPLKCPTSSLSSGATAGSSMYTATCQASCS
T2 sequence (P47871 26-477): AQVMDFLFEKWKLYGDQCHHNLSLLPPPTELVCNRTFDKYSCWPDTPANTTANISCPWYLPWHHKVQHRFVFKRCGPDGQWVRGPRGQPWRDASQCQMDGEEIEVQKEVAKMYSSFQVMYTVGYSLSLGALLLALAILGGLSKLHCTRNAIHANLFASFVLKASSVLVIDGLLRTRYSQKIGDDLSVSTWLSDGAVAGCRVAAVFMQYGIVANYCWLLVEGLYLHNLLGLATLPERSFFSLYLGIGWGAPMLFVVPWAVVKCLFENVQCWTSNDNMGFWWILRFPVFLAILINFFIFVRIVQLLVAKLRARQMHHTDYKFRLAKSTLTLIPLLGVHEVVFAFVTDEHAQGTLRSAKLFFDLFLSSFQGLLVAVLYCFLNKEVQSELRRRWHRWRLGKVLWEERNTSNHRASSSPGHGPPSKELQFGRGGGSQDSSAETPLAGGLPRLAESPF

What is called half-life is the time in which the quantity being followed falls by half. Usually pEC50 stands for the negative decadic logarithm of the EC50, by convention in mol/L. A low value points to a high EC50. `CC[C@H](C)[C@@H]1NC(=O)[C@H](Cc2ccccc2)NC(=O)[C@H](CCC(=O)O)NC(=O)[C@H](CCCCN)NC(=O)[C@H](C)NC(=O)[C@H](C)NC(=O)[C@@H](NC(=O)[C@H](CCC(=O)O)NC(=O)[C@H](CC(=O)O)NC(=O)[C@H](CC(C)C)NC(=O)[C@H](Cc2ccc(O)cc2)NC(=O)[C@H](CCCCN)NC(=O)[C@H](CO)NC(=O)[C@H](Cc2ccc(O)cc2)NC(=O)[C@H](CC(=O)O)NC(=O)[C@H](CO)NC(=O)[C@@H](NC(=O)[C@H](Cc2ccccc2)NC(=O)[C@@H](NC(=O)CNC(=O)[C@H](CCC(N)=O)NC(=O)[C@@H](CO)NC(=O)[C@@H](N)Cc2c[nH]cn2)[C@@H](C)O)[C@@H](C)O)CCCCNC(=O)CN(C(=O)CCNC(=O)CCOCCOCCOCCNC(=O)CCCCCCCCCCCCCCCCC(=O)O)CC(=O)NCCCC[C@@H](C(=O)N[C@@H](Cc2c[nH]c3ccccc23)C(=O)N[C@@H](CC(C)C)C(=O)N[C@@H](CC(C)C)C(=O)N[C@@H](CCCNC(=N)N)C(=O)N[C@@H](C)C(N)=O)NC1=O` [mTA4]: the values for the half-life in data set [1] (iv) and in data set [1] (sc) were 342 min and 480 min, respectively. Further, the pEC50 in data set [2] was 10.52; in data set [3], 9.82.

As to `CC[C@H](C)[C@@H]1NC(=O)[C@H](Cc2ccccc2)NC(=O)[C@H](CCC(=O)O)NC(=O)[C@H](CCCCN)NC(=O)[C@H](C)NC(=O)[C@H](C)NC(=O)[C@@H](NC(=O)[C@H](CCC(=O)O)NC(=O)[C@H](CC(=O)O)NC(=O)[C@H](CC(C)C)NC(=O)[C@H](Cc2ccc(O)cc2)NC(=O)[C@H](CCCCN)NC(=O)[C@H](CO)NC(=O)[C@H](Cc2ccc(O)cc2)NC(=O)[C@H](CC(=O)O)NC(=O)[C@H](CO)NC(=O)[C@@H](NC(=O)[C@H](Cc2ccccc2)NC(=O)[C@@H](NC(=O)CNC(=O)[C@H](CCC(N)=O)NC(=O)[C@@H](CO)NC(=O)[C@@H](N)Cc2c[nH]cn2)[C@@H](C)O)[C@@H](C)O)CCCCNC(=O)CCCC(=O)NCCCC[C@@H](C(=O)N[C@@H](Cc2c[nH]c3ccccc23)C(=O)N[C@@H](CC(C)C)C(=O)N[C@@H](CC(C)C)C(=O)N[C@@H](CC(N)=O)C(=O)NCC(=O)NCC(=O)N2CCC[C@H]2C(=O)N[C@@H](CO)C(=O)N[C@@H](CO)C(=O)NCC(=O)N[C@@H](C)C(=O)N2CCC[C@H]2C(=O)N2CCC[C@H]2C(=O)N2CCC[C@H]2C(=O)N[C@@H](CO)C(N)=O)NC1=O` [mTA5] (H-H[dS]QGTFTSDYSKYLDEKAAKEFIKWLLNGGPSSGAPPPS-NH2; linker 17-24 via Glutaryl), the pEC50 in data set [2] was 10.70; in data set [3], 10.15.

For `CCCCCCCCCCCCCC(=O)NCCOCCOCCOCCC(=O)NCCC(=O)N1CC(=O)NCCCC[C@@H](C(=O)N[C@@H](C)C(=O)N[C@@H](CCCNC(=N)N)C(=O)N[C@@H](CC(=O)O)C(=O)N[C@@H](Cc2ccccc2)C(=O)N[C@H](C(=O)N[C@@H](CC(N)=O)C(=O)N[C@@H](Cc2c[nH]c3ccccc23)C(=O)N[C@@H](CC(C)C)C(=O)N[C@H](C(=O)N[C@@H](CCC(N)=O)C(=O)N[C@H](C(=O)N[C@@H](CCCCN)C(=O)N[C@H](C(=O)N[C@H](C(=O)N[C@@H](CC(=O)O)C(N)=O)[C@@H](C)O)[C@@H](C)CC)[C@@H](C)O)[C@@H](C)CC)[C@@H](C)CC)NC(=O)[C@H](CC(C)C)NC(=O)[C@H](CC(N)=O)NC(=O)[C@H](CC(=O)O)NC(=O)[C@H](CC(C)C)NC(=O)[C@H]([C@@H](C)CC)NC(=O)[C@H]([C@@H](C)O)NC(=O)[C@@H](NC(=O)[C@H](CCSC)NC(=O)[C@H](CCC(=O)O)NC(=O)[C@H](CC(=O)O)NC(=O)[C@H](CO)NC(=O)[C@H](Cc2ccccc2)NC(=O)[C@H](CO)NC(=O)CNC(=O)[C@H](CC(=O)O)NC(=O)CNC(=O)[C@@H](N)Cc2c[nH]cn2)CCCCNC(=O)C1` [mTA7], the half-life in data set [4] (iv) amounted to 180 min; in data set [4] (sc), 240 min. This molecule gave a negative logarithm of the EC50 (pEC50) in data set [5] of 10.17.
